Assay results published in patent EP0382185A2, “Carbostyril derivatives” (OTSUKA PHARMACEUTICAL CO., LTD., priority 1989, dated 1990).

System: increase of diastolic pressure caused by the intravenous administration of Arg-vasopressin
Assay: Anti-vasopressor activity in vivo
Design: species or system male SD rat
Settings: 0.05 h; pith rat; test compound intravenous; Arg-vasopressin (30 mU/kg) intravenously 3 minutes after the test compound; dose reducing the increase of diastolic pressure to 50 % of control

COc1ccc(C(=O)N2CCC(N3C(=O)CCc4ccc(F)cc43)CC2)c(OC)c1 [Example 311, 7-Fluoro-1-[1-(2,4-dimethoxybenzoyl)-4-piperidinyl]-3,4-dihydrocarbostyril]
ED50: 0.3 mg/kg
